# According to patent US5292734A, “Angiotensin II receptor blocking 2,3,6 substituted quinazolinones” (American Cyanamid Company, priority 1993, dated 1994):
# Values joined by “and” are separate entries in the source; they are usually repeats but may differ in a detail not shown here. Equal entries are not always repeated.
# Tested on: Angiotensin II (AII) vasopressor response
# Test: AII challenge: vasopressor response of angiotensin II in conscious SHR
# Assay type: in vivo, rat (Conscious Male Okamoto-Aoki SHR)
# Conditions: for % Inhibition / Average Change: SHR n = 2; for Response After AII / Change / Control Before AII: single rat, SHR
# Excerpt: By administering a compound of this invention to a rat, and then challenging with angiotensin II, a blockage of the vasopressor response is realized.
# Conscious Male Okamoto-Aoki SHR, 16-20 weeks old, weighing approximately 330 g are purchased from Charles River Labs (Wilmington, Mass.). Conscious rats are restrained in a supine position with elastic tape. The area at the base of the tail is locally anesthetized by subcutaneous infiltration with 2% procaine. The ventral caudal artery and vein are isolated, and a cannula made of polyethylene (PE) 10-20 tubing (fused together by heat) is passed into the lower abdominal aorta and vena cava, respectively. The cannula is secured, heparinized (1,000 I.U./ml), sealed and the wound is closed. The animals are placed in plastic restraining cages in an upright position. The cannula is attached to a Statham P23Db pressure transducer, and pulsatile blood pressure is recorded to 10-15 minutes with a Gould Brush recorder. (Chan et al., (Drug Development Res., 18:75-94, 1989).
# Angiotensin II (human sequence, Sigma Chem. Co., St. Louis, Mo.) of 0.05 and 0.1 ug/kg i.v. is injected into all rats (predosing response). Then a test compound, vehicle or a known angiotensin II antagonist is administered i.v., i.p. or orally to each set of rats. The two doses of angiotensin II are given to each rat again at 30, 60, 90, 120, 180, 240 and 300 minutes post dosing the compound or vehicle. The vasopressor response of angiotensin II is measured for the increase in systolic blood pressure in mmhg. The percentage of antagonism or blockade of the vasopressor response of angiotensin II by a compound is calculated using the vasopressor response (increase in systolic blood pressure) of angiotensin II of each rat predosing the compound as 100%. A compound is considered active if at 30 mg/kg i.v. it antagonized at least 50% of the response.
# [1] = 1 mg/kg I.V., AII 0.05 mcg/kg IV, 30 min post dose
# [2] = 1 mg/kg I.V., AII 0.05 mcg/kg IV, 60 min post dose
# [3] = 1 mg/kg I.V., AII 0.05 mcg/kg IV, 90 min post dose
# [4] = 1 mg/kg I.V., AII 0.05 mcg/kg IV, 120 min post dose
# [5] = 1 mg/kg I.V., AII 0.05 mcg/kg IV, 180 min post dose
# [6] = 1 mg/kg I.V., AII 0.05 mcg/kg IV, 240 min post dose
# [7] = 1 mg/kg I.V., AII 0.1 mcg/kg IV, 30 min post dose
# [8] = 1 mg/kg I.V., AII 0.1 mcg/kg IV, 60 min post dose
# [9] = 1 mg/kg I.V., AII 0.1 mcg/kg IV, 90 min post dose
# [10] = 1 mg/kg I.V., AII 0.1 mcg/kg IV, 120 min post dose
# [11] = 1 mg/kg I.V., AII 0.1 mcg/kg IV, 180 min post dose
# [12] = 1 mg/kg I.V., AII 0.1 mcg/kg IV, 240 min post dose
# [13] = 2 mg/kg P.O., AII 0.05 mcg/kg IV, 30 min post dose
# [14] = 2 mg/kg P.O., AII 0.05 mcg/kg IV, 60 min post dose
# [15] = 2 mg/kg P.O., AII 0.05 mcg/kg IV, 90 min post dose
# [16] = 2 mg/kg P.O., AII 0.05 mcg/kg IV, 120 min post dose
# [17] = 2 mg/kg P.O., AII 0.05 mcg/kg IV, 180 min post dose
# [18] = 2 mg/kg P.O., AII 0.1 mcg/kg IV, 30 min post dose
# [19] = 2 mg/kg P.O., AII 0.1 mcg/kg IV, 60 min post dose
# [20] = 2 mg/kg P.O., AII 0.1 mcg/kg IV, 90 min post dose
# [21] = 2 mg/kg P.O., AII 0.1 mcg/kg IV, 120 min post dose
# [22] = 2 mg/kg P.O., AII 0.1 mcg/kg IV, 180 min post dose
# [23] = 1 mg/kg I.V., AII 0.05 mcg/kg IV, 30 min post dose, 1 mg/kg
# [24] = 1 mg/kg I.V., AII 0.05 mcg/kg IV, 60 min post dose, 1 mg/kg
# [25] = 1 mg/kg I.V., AII 0.05 mcg/kg IV, 90 min post dose, 1 mg/kg
# [26] = 1 mg/kg I.V., AII 0.05 mcg/kg IV, 180 min post dose, 1 mg/kg
# [27] = 1 mg/kg I.V., AII 0.05 mcg/kg IV, 240 min post dose, 1 mg/kg
# [28] = 1 mg/kg I.V., AII 0.1 mcg/kg IV, 30 min post dose, 1 mg/kg
# [29] = 1 mg/kg I.V., AII 0.1 mcg/kg IV, 60 min post dose, 1 mg/kg
# [30] = 1 mg/kg I.V., AII 0.1 mcg/kg IV, 90 min post dose, 1 mg/kg
# [31] = 1 mg/kg I.V., AII 0.1 mcg/kg IV, 120 min post dose, 1 mg/kg
# [32] = 1 mg/kg I.V., AII 0.1 mcg/kg IV, 180 min post dose, 1 mg/kg
# [33] = 1 mg/kg I.V., AII 0.1 mcg/kg IV, 240 min post dose, 1 mg/kg
# [34] = 2 mg/kg P.O., AII 0.05 mcg/kg IV, 30 min post dose, 2 mg/kg
# [35] = 2 mg/kg P.O., AII 0.05 mcg/kg IV, 90 min post dose, 2 mg/kg
# [36] = 2 mg/kg P.O., AII 0.05 mcg/kg IV, 120 min post dose, 2 mg/kg
# [37] = 2 mg/kg P.O., AII 0.05 mcg/kg IV, 180 min post dose, 2 mg/kg
# [38] = 2 mg/kg P.O., AII 0.1 mcg/kg IV, 60 min post dose, 2 mg/kg
# [39] = 2 mg/kg P.O., AII 0.1 mcg/kg IV, 120 min post dose, 2 mg/kg
# [40] = 2 mg/kg P.O., AII 0.1 mcg/kg IV, 180 min post dose, 2 mg/kg
smiles,measurement,setting,value
"CCCCc1nc2ccc(C(C)(O)CC3CCCN3)cc2c(=O)n1Cc1ccc(-c2ccccc2-c2nnn[nH]2)cc1 (stereo not drawn) [Example 79, CIS-2-Butyl-6-[1-hydroxy-1-methyl-2-(2-pyrrolidinyl)ethyl]-3-[[21-(1H-tetrazol-5-yl)[1,1'-biphenyl]-4-yl]methyl]-4(3H)-quinazolinone]",% Inhibition,[1],93%
same,Average Change,[1],2.5 mmhg
same,% Inhibition,[2],67%
same,Average Change,[2],12.5 mmhg
same,% Inhibition,[3],53%
same,Average Change,[3],17.5 mmhg
same,% Inhibition,[4],47%
same,Average Change,[4],20 mmhg
same,% Inhibition,[5],53%
same,Average Change,[5],17.5 mmhg
same,% Inhibition,[6],20%
same,Average Change,[6],30 mmhg
same,% Inhibition,[7],76%
same,Average Change,[7],11 mmhg
same,% Inhibition,[8],62%
same,Average Change,[8],17 mmhg
same,% Inhibition,[9],56%
same,Average Change,[9],20 mmhg
same,% Inhibition,[10],39%
same,Average Change,[10],27.5 mmhg
same,% Inhibition,[11],50%
same,Average Change,[11],22.5 mmhg
same,% Inhibition,[12],24%
same,Average Change,[12],34 mmhg
same,% Inhibition,[13],0%
same,Average Change,[13],27.5 mmhg
same,% Inhibition,[14],-9%
same,Average Change,[14],30 mmhg
same,% Inhibition,[15],13%
same,Average Change,[15],24 mmhg
same,% Inhibition,[16],15%
same,Average Change,[16],23.5 mmhg
same,% Inhibition,[17],5%
same,Average Change,[17],26 mmhg
same,% Inhibition,[18],-9%
same,Average Change,[18],30 mmhg
same,% Inhibition,[19],-36%
same,Average Change,[19],37.5 mmhg
same,% Inhibition,[20],-55%
same,Average Change,[20],42.5 mmhg
same,% Inhibition,[21],-11%
same,Average Change,[21],30.5 mmhg
same,% Inhibition,[22],-40%
same,Average Change,[22],38.5 mmhg
same,Response After AII,[1],200 mmhg
same,Change,[23],0 mmhg and 5 mmhg
same,Response After AII,[23],205 mmhg
same,Response After AII,[2],220 mmhg
same,Change,[24],15 mmhg and 10 mmhg
same,Response After AII,[24],205 mmhg
same,Response After AII,[3],220 mmhg
same,Change,[25],15 mmhg and 20 mmhg
same,Response After AII,[25],215 mmhg
same,Change,[4],20 mmhg
same,Response After AII,[4],215 mmhg
same,Response After AII,[5],220 mmhg
same,Change,[26],15 mmhg and 20 mmhg
same,Response After AII,[26],215 mmhg
same,Change,[27],25 mmhg and 35 mmhg
same,Response After AII,[27],220 mmhg and 235 mmhg
same,Response After AII,[7],202 mmhg
same,Change,[28],15 mmhg and 7 mmhg
same,Response After AII,[28],205 mmhg
same,Change,[29],19 mmhg and 15 mmhg
same,Response After AII,[29],214 mmhg and 210 mmhg
same,Response After AII,[9],220 mmhg
same,Change,[30],25 mmhg and 15 mmhg
same,Response After AII,[30],215 mmhg
same,Change,[31],30 mmhg and 25 mmhg
same,Response After AII,[31],230 mmhg and 220 mmhg
same,Response After AII,[11],220 mmhg
same,Change,[32],30 mmhg and 15 mmhg
same,Response After AII,[32],225 mmhg
same,Change,[33],33 mmhg and 35 mmhg
same,Response After AII,[33],238 mmhg and 240 mmhg
same,Control Before AII,"1 mg/kg I.V., before AII 0.05 mcg/kg IV, 30 min post dose",200 mmhg
same,Control Before AII,"1 mg/kg I.V., before AII 0.05 mcg/kg IV, 60 min post dose, 1 mg/kg",205 mmhg and 195 mmhg
same,Control Before AII,"1 mg/kg I.V., before AII 0.05 mcg/kg IV, 90 min post dose",200 mmhg
same,Control Before AII,"1 mg/kg I.V., before AII 0.05 mcg/kg IV, 120 min post dose",195 mmhg
same,Control Before AII,"1 mg/kg I.V., before AII 0.05 mcg/kg IV, 180 min post dose, 1 mg/kg",205 mmhg and 195 mmhg
same,Control Before AII,"1 mg/kg I.V., before AII 0.05 mcg/kg IV, 240 min post dose, 1 mg/kg",195 mmhg and 200 mmhg
same,Control Before AII,"1 mg/kg I.V., before AII 0.1 mcg/kg IV, 30 min post dose, 1 mg/kg",190 mmhg and 195 mmhg
same,Control Before AII,"1 mg/kg I.V., before AII 0.1 mcg/kg IV, 60 min post dose",195 mmhg
same,Control Before AII,"1 mg/kg I.V., before AII 0.1 mcg/kg IV, 90 min post dose, 1 mg/kg",195 mmhg and 200 mmhg
same,Control Before AII,"1 mg/kg I.V., before AII 0.1 mcg/kg IV, 120 min post dose, 1 mg/kg",200 mmhg and 195 mmhg
same,Control Before AII,"1 mg/kg I.V., before AII 0.1 mcg/kg IV, 180 min post dose, 1 mg/kg",195 mmhg and 205 mmhg
same,Control Before AII,"1 mg/kg I.V., before AII 0.1 mcg/kg IV, 240 min post dose",205 mmhg
same,Change,[34],30 mmhg and 25 mmhg
same,Response After AII,[34],260 mmhg and 275 mmhg
same,Change,[14],30 mmhg
same,Response After AII,"2 mg/kg P.O., AII 0.05 mcg/kg IV, 60 min post dose, 2 mg/kg",265 mmhg and 270 mmhg
same,Change,[35],20 mmhg and 28 mmhg
same,Response After AII,[35],245 mmhg and 258 mmhg
same,Change,[36],17 mmhg and 30 mmhg
same,Response After AII,[36],242 mmhg and 265 mmhg
same,Change,[37],17 mmhg and 35 mmhg
same,Response After AII,[37],252 mmhg and 275 mmhg
same,Change,[18],30 mmhg
same,Response After AII,"2 mg/kg P.O., AII 0.1 mcg/kg IV, 30 min post dose, 2 mg/kg",265 mmhg and 275 mmhg
same,Change,[38],35 mmhg and 40 mmhg
same,Response After AII,[38],260 mmhg and 280 mmhg
same,Response After AII,[20],270 mmhg
same,Change,"2 mg/kg P.O., AII 0.1 mcg/kg IV, 90 min post dose, 2 mg/kg",45 mmhg and 40 mmhg
same,Change,[39],31 mmhg and 30 mmhg
same,Response After AII,[39],255 mmhg and 270 mmhg
same,Change,[40],32 mmhg and 45 mmhg
same,Response After AII,[40],262 mmhg and 280 mmhg
same,Control Before AII,"2 mg/kg P.O., before AII 0.05 mcg/kg IV, 30 min post dose",250 mmhg
same,Control Before AII,"2 mg/kg P.O., before AII 0.05 mcg/kg IV, 30 min post dose, 2 mg/kg",230 mmhg
same,Control Before AII,"2 mg/kg P.O., before AII 0.05 mcg/kg IV, 60 min post dose",240 mmhg
same,Control Before AII,"2 mg/kg P.O., before AII 0.05 mcg/kg IV, 60 min post dose, 2 mg/kg",235 mmhg
same,Control Before AII,"2 mg/kg P.O., before AII 0.05 mcg/kg IV, 90 min post dose, 2 mg/kg",225 mmhg and 230 mmhg
same,Control Before AII,"2 mg/kg P.O., before AII 0.05 mcg/kg IV, 120 min post dose, 2 mg/kg",225 mmhg and 235 mmhg
same,Control Before AII,"2 mg/kg P.O., before AII 0.05 mcg/kg IV, 180 min post dose",240 mmhg
same,Control Before AII,"2 mg/kg P.O., before AII 0.05 mcg/kg IV, 180 min post dose, 2 mg/kg",235 mmhg
same,Control Before AII,"2 mg/kg P.O., before AII 0.1 mcg/kg IV, 30 min post dose, 2 mg/kg",235 mmhg and 245 mmhg
same,Control Before AII,"2 mg/kg P.O., before AII 0.1 mcg/kg IV, 60 min post dose",240 mmhg
same,Control Before AII,"2 mg/kg P.O., before AII 0.1 mcg/kg IV, 60 min post dose, 2 mg/kg",225 mmhg
same,Control Before AII,"2 mg/kg P.O., before AII 0.1 mcg/kg IV, 90 min post dose, 2 mg/kg",225 mmhg and 230 mmhg
same,Control Before AII,"2 mg/kg P.O., before AII 0.1 mcg/kg IV, 120 min post dose",240 mmhg
same,Control Before AII,"2 mg/kg P.O., before AII 0.1 mcg/kg IV, 120 min post dose, 2 mg/kg",224 mmhg
same,Control Before AII,"2 mg/kg P.O., before AII 0.1 mcg/kg IV, 180 min post dose, 2 mg/kg",230 mmhg and 235 mmhg
